From publication PMC4964800 (Bioorganic & medicinal chemistry letters, 2016) come the findings set out here.

The IC50 is the concentration needed to halve the response being measured.

Common to all, as to assay type: cell-based
The subject of one assay is STAT3. As to the kind of experiment: IL-6-induced STAT3 activation high content. To be noted: for IC50: Homo sapiens, CAL-33, read-out: STAT3 IC50; for times less active (STAT3) after exchanging R-substituents of 1a and 2b: compared with 1a and 2b; for fold improvement in STAT3 potency compared to original hit 2b: vs 2b.
In the next assay the test system is STAT1. As to the kind of experiment: IFN-γ-induced STAT1 pathway activation assay. To be noted: read-out: STAT1 IC50.
Assay [1] has as its system pSTAT3 and STAT3 target gene Cyclin D1. Put plainly: Western blot analysis in IL-6-stimulated Cal33 cells. To be noted: IL-6 (50 ng/mL)-stimulated Cal33 cells. Background: A western blot detects proteins with antibodies after separation by electrophoresis.

As for `Clc1ccc(C2=Nn3c(nnc3-c3[nH]nc4c3CCC4)SC2)cc1Cl` [Compound 1a], the IC50 in the assay on STAT3 is 6.8 ± 3.7 µM; in the assay with STAT1 it was more than 50 µM.

As to `Clc1ccc(C2=Nn3c(nnc3-c3cc(-c4ccccc4)n[nH]3)SC2)cc1Cl` [Compound 1b], in the assay with STAT3, the “times less active (STAT3) after exchanging R-substituents of 1a and 2b” value is 3–4 times. In addition, in the assay on STAT1, the IC50 is more than 50 µM.

As for `Clc1ccc(C2=Nn3c(nnc3-c3[nH]nc4c3CCC4)SC2)cc1` [Compound 2a], the “times less active (STAT3) after exchanging R-substituents of 1a and 2b” value with STAT3 is on record as 3–4 times. In addition, the IC50 in the assay with STAT1 is more than 50 µM.

Regarding `Clc1ccc(C2=Nn3c(nnc3-c3cc(-c4ccccc4)[nH]n3)SC2)cc1` [Compound 2b], the figures for the IC50 in the assay with STAT3 and in the assay on STAT1 were 9.6 ± 7.8 µM and more than 50 µM, respectively.

In the case of `Clc1cccc(C2=Nn3c(nnc3-c3[nH]nc4c3CCC4)SC2)c1` [Compound 4a], in the assay on STAT1, the IC50 was more than 50 µM.

For the compound `Clc1cccc(C2=Nn3c(nnc3-c3cc(-c4ccccc4)n[nH]3)SC2)c1` [Compound 4b], the IC50 is 5.6 ± 4 µM in the assay on STAT3 and 45.9 ± 8.3 µM with STAT1.

Regarding `c1ccc(C2=Nn3c(nnc3-c3[nH]nc4c3CCC4)SC2)cc1` [Compound 5a], the figures for the IC50 in the assay with STAT3 and with STAT1 were 21.2 ± 23.5 µM and more than 50 µM, respectively.

For `c1ccc(C2=Nn3c(nnc3-c3cc(-c4ccccc4)[nH]n3)SC2)cc1` [Compound 5b], in the assay on STAT1, the IC50 was more than 50 µM.

For `COc1ccc(C2=Nn3c(nnc3-c3[nH]nc4c3CCC4)SC2)cc1` [Compound 6a], the IC50 with STAT1 worked out at 40.6 ± 7.5 µM.

For `COc1ccc(C2=Nn3c(nnc3-c3cc(-c4ccccc4)n[nH]3)SC2)cc1` [Compound 6b], the IC50 in the assay on STAT1 is more than 50 µM.

On to `c1cc(C2=Nn3c(nnc3-c3[nH]nc4c3CCC4)SC2)ccn1` [Compound 7a], for which, in the assay on STAT1, the IC50 is more than 50 µM.

As to `c1ccc(-c2cc(-c3nnc4n3N=C(c3ccncc3)CS4)[nH]n2)cc1` [Compound 7b], the IC50 with STAT1 is more than 50 µM.

Take `Clc1ccc(C2=Nn3c(nnc3-c3[nH]nc4c3CCC4)SC2)s1` [Compound 8a]: the IC50 with STAT1 was more than 50 µM.

`Clc1ccc(C2=Nn3c(nnc3-c3cc(-c4ccccc4)n[nH]3)SC2)s1` [Compound 8b]: in the assay with STAT1, the IC50 was more than 50 µM.

As for `C1=Nn2c(nnc2-c2[nH]nc3c2CCC3)SC1` [Compound 9a], the IC50 in the assay with STAT1 was more than 50 µM.

As to `C1=Nn2c(nnc2-c2cc(-c3ccccc3)n[nH]2)SC1` [Compound 9b], in the assay with STAT1, the IC50 is more than 50 µM.

With `CC1=Nn2c(nnc2-c2[nH]nc3c2CCC3)SC1` [Compound 10a], in the assay with STAT1, the IC50 is more than 50 µM.

On to `CC1=Nn2c(nnc2-c2cc(-c3ccccc3)[nH]n2)SC1` [Compound 10b], for which the IC50 with STAT1 was more than 50 µM.

For the compound `C1CCC(C2=Nn3c(nnc3-c3[nH]nc4c3CCC4)SC2)CC1` [Compound 11a], the IC50 in the assay on STAT1 is more than 50 µM.

Consider `c1ccc(-c2cc(-c3nnc4n3N=C(C3CCCCC3)CS4)[nH]n2)cc1` [Compound 11b], for which the IC50 in the assay on STAT1 was more than 50 µM.

For `COc1ccc(C2CSc3nnc(-c4[nH]nc5c4CCC5)n3N2)cc1` (stereo not drawn) [Compound 12], the “activity in the STAT3 assay (in words)” value in the assay on STAT3 was “inactive”.

For `COc1ccc(C2CSc3nnc(-c4cc(-c5ccccc5)n[nH]4)n3N2C(C)=O)cc1` (stereo not drawn) [Compound 13], the “activity in the STAT3 assay (in words)” value in the assay on STAT3 was “inactive”.

For the compound `Fc1ccc(-c2cc(-c3nnc4n3N=C(c3ccc(Cl)c(Cl)c3)CS4)[nH]n2)cc1` [Compound 14], the “fold improvement in STAT3 potency over unsubstituted analog 1b” value in the assay on STAT3 (vs 1b) is reported as ~ 4 fold.

`Clc1ccc(C2=Nn3c(nnc3-c3[nH]nc4c3CCCC4)SC2)cc1Cl` [Compound 16]: the “fold less active than cyclopentyl analog 1a” value in the assay on STAT3 (vs 1a) is ~ 2 fold.

As to `CC1Sc2nnc(-c3[nH]nc4c3CCC4)n2N=C1c1ccc(Cl)c(Cl)c1` (stereo not drawn) [Compound 17], the figures for the IC50 in the assay with STAT3 and in the assay with STAT1 were 8.2 ± 2.2 µM and more than 50 µM, respectively.

Turning to `COc1ccc(C2=Nn3c(nnc3-c3[nH]nc4c3CCC4)SC2C)cc1` (stereo not drawn) [Compound 18], the half-maximal inhibitory concentration (IC50) with STAT3 is 9.1 µM; with STAT1, more than 50 µM.

Turning to `CC1Sc2nnc(-c3cc(-c4ccccc4)n[nH]3)n2N=C1c1ccccc1` (stereo not drawn) [Compound 19], in the assay with STAT3, the IC50 is 3.4 µM and the “fold improvement in STAT3 potency compared to original hit 2b” value (from here on “fold improvement … to original hit 2b”) is listed as 2–3 fold. For the same compound, in assay [1], the “downstream STAT3 target gene Cyclin D1 by Western blot” value is listed as “significant inhibition” and the “pSTAT3 levels by Western blot” value is given as “pronounced decreases”. In the assay with STAT1, the IC50 turned out to be 15 µM.

In the case of `CC1Sc2nnc(-c3cc(-c4ccc(F)cc4)n[nH]3)n2N=C1c1ccccc1` (stereo not drawn) [Compound 20], in the assay on STAT3, the IC50 was determined as 3.8 ± 0.8 µM and the “fold improvement … to original hit 2b” value is 2–3 fold. Besides, in the assay on STAT1, the IC50 was more than 30 µM.

Regarding `COc1ccc(C2=Nn3c(nnc3-c3cc(-c4ccc(F)cc4)n[nH]3)SC2C)cc1` (stereo not drawn) [Compound 21], in the assay with STAT3, the IC50 was 4.2 µM and the “fold improvement … to original hit 2b” value was 2–3 fold. For the same compound, the half-maximal inhibitory concentration (IC50) in the assay with STAT1 is more than 30 µM.

Take `COc1ccc(C2=Nn3c(nnc3-c3cc(-c4ccc(Cl)cc4)n[nH]3)SC2C)cc1` (stereo not drawn) [Compound 22]: in assay [1], the “downstream STAT3 target gene Cyclin D1 by Western blot” value is given as “significant inhibition” and the “pSTAT3 levels by Western blot” value is recorded as “pronounced decreases”.

For `CC(C)C1Sc2nnc(-c3[nH]nc4c3CCC4)n2N=C1c1ccc(Cl)c(Cl)c1` (stereo not drawn) [Compound 23], the IC50 with STAT3 is 4.4 µM; with STAT1 it was more than 50 µM.

With `COc1ccc(C2=Nn3c(nnc3-c3[nH]nc4c3CCC4)SC2C(C)C)cc1` (stereo not drawn) [Compound 24], the concentration for half-maximal inhibition (IC50) in the assay on STAT1 was more than 50 µM.

On to `CC(C)CC1Sc2nnc(-c3[nH]nc4c3CCC4)n2N=C1c1ccc(Cl)c(Cl)c1` (stereo not drawn) [Compound 25], for which the IC50 was 4.1 µM with STAT3 and more than 50 µM with STAT1.

For `COc1ccc(C2=Nn3c(nnc3-c3cc(-c4ccccc4)n[nH]3)SC2CC(C)C)cc1` (stereo not drawn) [Compound 26], in the assay with STAT1, the IC50 was more than 50 µM.

For the compound `Clc1ccc(C2=Nn3c(nnc3-c3[nH]nc4c3CCC4)SC2Cc2ccccc2)cc1Cl` (stereo not drawn) [Compound 27], the IC50 in the assay on STAT3 was 7.5 µM; with STAT1, more than 50 µM.

In the case of `CC1(C)Sc2nnc(-c3[nH]nc4c3CCC4)n2N=C1c1ccc(Cl)c(Cl)c1` [Compound 30], the values for the IC50 in the assay with STAT3 and in the assay with STAT1 were 18.6 µM and more than 50 µM, respectively.
